Laboratory results from paper PMC5358997, “Fixed-dose combination orally disintegrating tablets to treat cardiovascular disease: formulation, in vitro characterization and physiologically based pharmacokinetic modeling to assess bioavailability” (Drug Design, Development and Therapy, 2017).

Columns and labels:
[1] = Dissolution testing of ODTs in biorelevant media (USP 2 paddle), f1/f2 comparison; format: physicochemical; settings: for Similarity factor f2 / Difference factor f1: single (reference) vs FDC (test) dissolution profile; for Similarity factor f2: similar if above 50; for Difference factor f1: similar if below 15; for >85% dissolution ≤15 min: single and FDC formulations; for Results of f1 and f2 testing: similar if f1 below 15 and f2 above 50
Experimental: API dissolution from ODTs in 900 mL biorelevant media was tested in both FaSSIF and FeSSIF at pH 6.5 and 5, respectively, and maintained at 37°C. An ERWEKA DT 600 USP 2 paddle apparatus (Heusenstamm, Germany) was used at a paddle speed of 50 rpm.[27] A total of 5 mL of sample was taken over 2 h, replacing with 5 mL fresh media to simulate sink conditions. API dissolution was measured using HPLC and corrected for percent dose dissolved.
Differences between dissolution profiles of APIs in single dose (reference) and combination (test) were assessed using f1 and f2 difference and similarity factor testing using the equations:[34] f1={[∑t=1n|Rt−Tt|]/[∑t=1nRt]}*100f2=50*log{[1+(1/n)∑t=1n(Rt−Tt)^2]^−0.5*100} where Rt and Tt are the percent drug-dissolved value at each time point for the reference and test product, respectively, and n is the number of time points.

in vitro = settings: human; for efflux ratio at 2 h: Caco-2, pH 7.4, Efflux ratio; for Papp A→B at 2 h: Caco-2, pH 7.4, Papp A–B; for Papp B→A at 2 h: Caco-2, pH 7.4, Papp B–A
Experimental: Media were changed every 2–3 days and transwells cultured at 37°C, 5% CO2 for 21 days, after which transport studies were performed. […] Samples of 100 μL were removed from the A side and 200 μL from the B side at time points over 2 h, replacing with fresh prewarmed media (37°C) to mimic sink conditions. […] Cultures were maintained at 37°C and 5% CO2 throughout the experiment.

LDL-C = settings: hypercholesterolemic patients; cited from earlier work
[2] = amlodipine (20 μg/mL) and atorvastatin (40 μg/mL) in combination, pH 7.4, n=3, mean ± SD
[3] = drug alone (amlodipine 20 μg/mL, atorvastatin 40 μg/mL), pH 7.4 both compartments, n=3, mean ± SD

Dissolution within 15 min ([1]; FaSSIF, both single and FDC ODT)	Similarity factor f2 ([1]; FaSSIF)	Difference factor f1 ([1]; FaSSIF)	>85% dissolution ≤15 min ([1]; FaSSIF)	Results of f1 and f2 testing ([1]; FaSSIF)	Dissolution within 15 min ([1]; FeSSIF, either single or FDC ODT)	Similarity factor f2 ([1]; FeSSIF)	Difference factor f1 ([1]; FeSSIF)	>85% dissolution ≤15 min ([1]; FeSSIF)	Results of f1 and f2 testing ([1]; FeSSIF)	efflux ratio at 2 h (in vitro; amlodipine and atorvastatin in combination, pH 7.4)	efflux ratio at 2 h (in vitro; drug alone, pH 7.4 both compartments)	Papp A→B at 2 h (in vitro; [2])	Papp A→B at 2 h (in vitro; [3])	Papp B→A at 2 h (in vitro; [2])	Papp B→A at 2 h (in vitro; [3])	Structure (SMILES)	Reduction of LDL-C (LDL-C)
exceeded 85%	70.80	5.08	Yes	Pass	≤ 85%	45.40	15.92	No	Fail	0.96	1.14	5.4 ± 0.48 ×10⁻⁶ cm/s	8.34 ± 0.32 ×10⁻⁶ cm/s	5.18 ± 0.29 ×10⁻⁶ cm/s	9.51 ± 1.7 ×10⁻⁶ cm/s	CCOC(=O)C1=C(COCCN)NC(C)=C(C(=O)OC)C1c1ccccc1Cl (centres unmarked) [Amlodipine, Amlodipine besylate]	
	53.81	14.16		Pass		54.59	13.24		Pass							CC(C)c1c(C(=O)Nc2ccccc2)c(-c2ccccc2)c(-c2ccc(F)cc2)n1CC[C@@H](O)C[C@@H](O)CC(=O)O [Atorvastatin, atorvastatin calcium]	41%–61%
